Data from US20170360747A1, “USE OF ZILEUTON FOR THE TREATMENT OF NASAL POLYPS IN CYSTIC FIBROSIS PATIENTS” (CORNERSTONE THERAPEUTICS INC., priority 2011, published 2017).

Assays:
5-lipoxygenase = biological target: T1, 5-lipoxygenase (Homo sapiens, UniProt P09917); settings: statement 'recently been found', no data given; cited from earlier work
T1 sequence (P09917 1-674): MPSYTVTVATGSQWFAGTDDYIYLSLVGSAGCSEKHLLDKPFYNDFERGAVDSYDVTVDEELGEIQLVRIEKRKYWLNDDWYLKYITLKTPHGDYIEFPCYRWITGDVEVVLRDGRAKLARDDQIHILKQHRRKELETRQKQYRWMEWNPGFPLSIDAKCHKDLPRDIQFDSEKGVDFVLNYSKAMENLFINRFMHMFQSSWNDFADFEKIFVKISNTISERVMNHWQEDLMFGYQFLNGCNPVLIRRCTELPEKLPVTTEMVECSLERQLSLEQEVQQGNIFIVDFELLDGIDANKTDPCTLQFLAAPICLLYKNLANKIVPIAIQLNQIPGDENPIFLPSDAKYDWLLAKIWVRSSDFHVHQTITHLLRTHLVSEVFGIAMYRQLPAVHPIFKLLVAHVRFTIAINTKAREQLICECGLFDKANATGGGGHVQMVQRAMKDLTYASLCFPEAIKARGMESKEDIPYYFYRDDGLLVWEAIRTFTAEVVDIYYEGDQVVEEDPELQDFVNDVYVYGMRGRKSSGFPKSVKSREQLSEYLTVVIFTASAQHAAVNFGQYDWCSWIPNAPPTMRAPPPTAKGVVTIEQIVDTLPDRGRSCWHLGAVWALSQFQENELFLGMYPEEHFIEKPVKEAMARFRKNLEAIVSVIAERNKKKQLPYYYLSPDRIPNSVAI

[1] = tested on: coughing in patient with cystic fibrosis and chronic sinusitis; experiment: Case report Example 2: cystic fibrosis patient with chronic sinusitis and coughing; assay type: in vivo, human
Protocol: Patient failed medical treatment, so they underwent endoscopic sinus surgery. Patient's sinus culture has grown MRSA and Pseudomonas. Patient initially did well after the surgery but was readmitted for pulmonary exacerbation. […] Patient was treated with ciprofloxacin for Pseudomonas. […] Nasal endoscopy was not performed in the child due to their young age. The patient was then treated with zileuton 600 mg BID after a normal liver function test. Patient's coughing improved with the zileuton treatment.

[2] = tested on: nasal polyposis in patient with cystic fibrosis; experiment: Case report Example 1: cystic fibrosis patient with bilateral nasal polyposis; assay type: in vivo, human
Protocol: A patient has a history of cystic fibrosis and chronic sinusitis. The patient complained of hyposmia and nasal congestion. […] Culture of the sinuses grew out Pseudomonas. Patient was prescribed ciprofloxacin per the sinus culture. […] Prior to prescribing oral zileuton, a liver function test was performed that was normal. Patient was given zileuton 1200 mg BID. Two months later patient came back with improved nasal congestion and smell. […] Since the patient's symptoms improved, the zileuton was eventually discontinued. After a few months the patient's sinus infection returned. Patient was placed on oral ciprofloxacin.

[3] = zileuton 1200 mg BID oral, two months later, one patient
[4] = treatments given before zileuton (ciprofloxacin for Pseudomonas; inhaled dornase alfa)

Q: With C[C@H](c1cc2ccccc2s1)N(O)C(N)=O [(R)-zileuton] as the molecule, how does the “efficacy in inhibiting 5-lipoxygenase activity, compared between enantiomers and racemate” value (5-lipoxygenase) read?
A: more efficacious than either of (S)-zileuton and racemic zileuton

Q: For CC(c1cc2ccccc2s1)N(O)C(N)=O (racemic) [zileuton, (±)-1-(1-Benzo[b]thien-2-ylethyl)-1-hydroxyurea], which coughing ([1]; zileuton 600 mg BID, one patient) is on record?
A: improved

Q: What about the “nasal congestion and smell” value [2, 3] of the same molecule?
A: improved

Q: What about the “nasal endoscopy: polyps” value [2, 3] of the same molecule?
A: decreased polyps

Q: And the “nasal endoscopy: purulence” value ([2]; zileuton 1200 mg BID oral, two months later, prescribed ciprofloxacin not taken)?
A: no purulence

Q: And the “adverse effect: coughing” value ([2]; zileuton 1200 mg BID, dose then decreased to 600 mg BID)?
A: increased coughing

Q: For O=C(O)c1cn(C2CC2)c2cc(N3CCNCC3)c(F)cc2c1=O [ciprofloxacin], which coughing [1, 4] is on record?
A: initially improved but gradually returned

Q: And the “nasal symptoms after return of sinus infection” value ([2]; oral ciprofloxacin, after zileuton was discontinued)?
A: initial improvement but eventually had return of their nasal symptoms

B1: dornase alfa (protein, UniProt P24855 23-282, looked up)
Deoxyribonuclease-1: LKIAAFNIQTFGETKMSNATLVSYIVQILSRYDIALVQEVRDSHLTAVGKLLDNLNQDAPDTYHYVVSEPLGRNSYKERYLFVYRPDQVSAVDSYYYDDGCEPCGNDTFNREPAIVRFFSRFTEVREFAIVPLHAAPGDAVAEIDALYDVYLDVQEKWGLEDVMLMGDFNAGCSYVRPSQWSSIRLWTSPTFQWLIPDSADTTATPTHCAYDRIVVAGMLLRGAVVPDSALPFNFQAAYGLSDQLAQAISDHYPVEVMLK
notes: inhaled dornase alfa, part of aggressive medical treatment
Q: Which coughing [1, 4] does the source give for B1 here?
A: continued to have coughing
